Test results published in article PMC10135569, “Does Enhanced Structural Maturity of hiPSC-Cardiomyocytes Better for the Detection of Drug-Induced Cardiotoxicity?” (Biomolecules, 2023).

Legend:
[1] = system: hiPSC-CMs (iCell2 Cardiomyocytes) 2D monolayers; assay: Membrane potential (action potential) recordings with FluoVolt voltage-sensitive dye on the CellOPTIQ platform; format: cell-based, human; details: for activity at 3 µM / activity at 0.1 µM / activity at 0.3 µM / activity at 1 µM: Homo sapiens, Cardiomyocyte, 0.5 h, 30 min, delta over DMSO 0.1%
Protocol: (§1) Cardiomyocytes (FUJIFILM Cellular Dynamics, Madison, WI, USA) were kept at −190 °C and prepared for culture as per the manufacturer’s instructions.
(§2) Standard fibronectin vs. Matrix Plus well coating: The cells were cultured using two different coatings in a humidified incubator at 37 °C with 5% CO2. First, 96-well glass-bottomed plates (MatTek, Ashland, MA) were coated with fibronectin ([…] in PBS supplemented with Ca^2+ and Mg^2+; Sigma, St. Louis, MO, USA) (defining FM). Second, CELLvo^TM Matrix Plus (StemBioSys, San Antonio, TX, USA), which were pre-coated on 96 well glass bottom plates and kept at 4 °C. On the day of plating, CELLvo^TM Matrix Plus plates were transferred to room temperature, rehydrated with phosphate buffer saline (PBS), incubated for 1 h at 37 °C, and washed 2× with PBS. Cells were introduced at a density of 50,000 cells/well to allow the formation of a confluent monolayer in each well (defined as MM). The maintenance protocols followed the manufacturer’s instructions and used the iCell^2 Cardiomyocytes Maintenance media for media changes every 2 days. Experiments were performed between days 5 and 6, as recommended by the manufacturers. Before beginning an experiment, cells were washed in serum-free media (SF media) (Fluorobrite DMEM, Gibco, Thermo Fisher Scientific, Horsham, UK).
(§3) The drug powders were dissolved in DMSO, and four stock concentrations at 1000× the final target concentration were prepared in DMSO. For the experiment, an intermediate concentration 2× the target solution was prepared in SF media. The addition of drugs to the cells was accomplished by replacing 50% of the well volume with the intermediate 2× solution. The same procedure was done for vehicle control using DMSO. The experimental number n = 8/concentration/testing compound in the FM or MM condition, and n = 36 for each positive or negative control in the FM or MM condition.
Cultures of hiPSC-CMs (5–6 days post-plating) were treated with FluoVolt dye (1:1000, Invitrogen, Cat# F10488) in SF media and incubated for 20 min at 37 °C with 5% CO2 and 80% humidity. Multi-well plates were placed in the environmentally controlled stage incubator (37 °C, 5% CO2, water-saturated air atmosphere) (Okolab Inc. Burlingame, CA) of the CellOPTIQ® platform (Clyde Biosciences Ltd., Glasgow, Scotland). The FluoVolt signal was recorded from a 0.2 mm × 0.2 mm area using a 40× (numerical aperture: NA 0.6) Excitation wavelength was 470 ± 10 nm using a light-emitting diode (LED), and emitted light was collected by two photomultipliers (PMTs) at 510–560 nm (channel 1) and 590–650 nm (channel 2), respectively. LED, PMT, and associated power supplies and amplifiers were supplied by Cairn Research Ltd. (Kent, UK) and digitized at 10 kHz and stored on a computer hard drive. In the case of FluoVolt-based action potential recordings, the short wavelength (channel 1, […]) was analyzed for action potential features.
(§4) The dye FluoVolt is loaded into the surface membrane (outer leaflet), and the dye remains within the membrane for many dots, allowing intermittent voltage measurements over the experimental period. In this study, measurements were restricted to within 30 mins of application of the drug. The measurements were made on the same area before/after drug/DMSO addition. […] Baseline spontaneous electrical activity and the associated contractility signal were recorded by capturing 10 s segments of fluorescent signal and video for 2D plates and 15 s for organoids from each well prior to compound addition. Drugs were tested at four concentrations in n = 8 independent replicates (i.e., 8 wells from a single plating) at each concentration. A vehicle control was included for each drug. A 10 s or 15 s recording was then taken 30 min after exposure to the drug or vehicle with only one concentration applied/well.

[2] = system: hiPSC-CMs (iCell2 Cardiomyocytes) 2D monolayers; assay: Contractility measurements using video imaging (ContractilityTool / MUSCLEMOTION); format: cell-based, human; details: Homo sapiens, Cardiomyocyte, 0.5 h, 30 min, delta over DMSO 0.1%
Protocol: as §1, §2, §3
as §4, with “applied/well. Offline analysis was performed using proprietary software (CellOPTIQ®).” for “applied/well.”
Short periods (10 s or 15 s) of video were analyzed using the ContractilityTool application (developed by F.L. Burton), which is an implementation of the MUSCLEMOTION algorithm.

[3] = MM monolayer, read-out: APD30 (%DD)
[4] = MM monolayer, read-out: APD90 (%DD)
[5] = MM monolayer, read-out: CL (%DD)
[6] = MM monolayer, read-out: Trise (%DD)
[7] = read-out: APD30 (%DD), FM monolayer
[8] = read-out: APD90 (%DD), FM monolayer
[9] = read-out: CL (%DD), FM monolayer
[10] = read-out: Trise (%DD), FM monolayer
[11] = FM monolayer, read-out: CtAmp (%DD)
[12] = FM monolayer, read-out: CtD50 (%DD)
[13] = MM monolayer, read-out: CtAmp (%DD)
[14] = MM monolayer, read-out: CtD50 (%DD)

## O=C1CCCN1CC#CCN1CCCC1 [Oxotremorine]
[1]; FM monolayer, read-out: Trise (%DD)
  activity at 3 µM: 132 ± 11.2%
[1]; [3]
  activity at 0.1 µM: 104 ± 1.7%
  activity at 0.3 µM: 110 ± 3.4%
  activity at 1 µM: 110 ± 2.8%
  activity at 3 µM: 115 ± 3.8%
[1]; [4]
  activity at 0.1 µM: 104 ± 1%
  activity at 0.3 µM: 108 ± 1.1%
  activity at 1 µM: 114 ± 1.1%
  activity at 3 µM: 113 ± 1.2%
[1]; [5]
  activity at 0.1 µM: 111 ± 2.8%
  activity at 0.3 µM: 115 ± 3.3%
  activity at 1 µM: 120 ± 1.4%
  activity at 3 µM: 123 ± 1.1%
[1]; [6]
  activity at 0.1 µM: 124 ± 18.7%
  activity at 0.3 µM: 144 ± 26.3%
  activity at 1 µM: 117 ± 17%
  activity at 3 µM: 158 ± 32%
[1]; [7]
  activity at 0.1 µM: 106 ± 2.3%
  activity at 0.3 µM: 111 ± 3.3%
  activity at 1 µM: 110 ± 4.4%
  activity at 3 µM: 107 ± 3.4%
[1]; [8]
  activity at 0.1 µM: 103 ± 1.3%
  activity at 0.3 µM: 105 ± 2.8%
  activity at 1 µM: 111 ± 1.7%
  activity at 3 µM: 101 ± 2.8%
[1]; [9]
  activity at 0.1 µM: 117 ± 1.3%
  activity at 0.3 µM: 122 ± 1.8%
  activity at 1 µM: 121 ± 2.9%
  activity at 3 µM: 111 ± 3.6%
[1]; [10]
  activity at 0.1 µM: 155 ± 41.3%
  activity at 0.3 µM: 145 ± 24.3%
  activity at 1 µM: 117 ± 13.3%
[1]; both FM and MM, concentration not given
  effect on beating rate / spontaneous rate (in words): decrease
[1]; both groups (FM and MM)
  changes in the APD: < 10%
[2]; [11]
  activity at 0.1 µM: 140 ± 19.7%
  activity at 0.3 µM: 105 ± 16.5%
  activity at 1 µM: 117 ± 14.5%
  activity at 3 µM: 166 ± 17.6%
[2]; [12]
  activity at 0.1 µM: 108 ± 1.9%
  activity at 0.3 µM: 112 ± 2.5%
  activity at 1 µM: 116 ± 2.8%
  activity at 3 µM: 110 ± 1.6%
[2]; [13]
  activity at 0.1 µM: 106 ± 11.7%
  activity at 0.3 µM: 97 ± 12.9%
  activity at 1 µM: 105 ± 10.2%
  activity at 3 µM: 103 ± 7.4%
[2]; [14]
  activity at 0.1 µM: 116 ± 2.1%
  activity at 0.3 µM: 117 ± 1.1%
  activity at 1 µM: 118 ± 1.6%
  activity at 3 µM: 120 ± 2.3%
